Literature values, collected in the Kinase Knowledgebase extract (Sharma et al. 2016).

Target: EGFR (UniProt P00533)
Sequence (P00533 whole entry, looked up): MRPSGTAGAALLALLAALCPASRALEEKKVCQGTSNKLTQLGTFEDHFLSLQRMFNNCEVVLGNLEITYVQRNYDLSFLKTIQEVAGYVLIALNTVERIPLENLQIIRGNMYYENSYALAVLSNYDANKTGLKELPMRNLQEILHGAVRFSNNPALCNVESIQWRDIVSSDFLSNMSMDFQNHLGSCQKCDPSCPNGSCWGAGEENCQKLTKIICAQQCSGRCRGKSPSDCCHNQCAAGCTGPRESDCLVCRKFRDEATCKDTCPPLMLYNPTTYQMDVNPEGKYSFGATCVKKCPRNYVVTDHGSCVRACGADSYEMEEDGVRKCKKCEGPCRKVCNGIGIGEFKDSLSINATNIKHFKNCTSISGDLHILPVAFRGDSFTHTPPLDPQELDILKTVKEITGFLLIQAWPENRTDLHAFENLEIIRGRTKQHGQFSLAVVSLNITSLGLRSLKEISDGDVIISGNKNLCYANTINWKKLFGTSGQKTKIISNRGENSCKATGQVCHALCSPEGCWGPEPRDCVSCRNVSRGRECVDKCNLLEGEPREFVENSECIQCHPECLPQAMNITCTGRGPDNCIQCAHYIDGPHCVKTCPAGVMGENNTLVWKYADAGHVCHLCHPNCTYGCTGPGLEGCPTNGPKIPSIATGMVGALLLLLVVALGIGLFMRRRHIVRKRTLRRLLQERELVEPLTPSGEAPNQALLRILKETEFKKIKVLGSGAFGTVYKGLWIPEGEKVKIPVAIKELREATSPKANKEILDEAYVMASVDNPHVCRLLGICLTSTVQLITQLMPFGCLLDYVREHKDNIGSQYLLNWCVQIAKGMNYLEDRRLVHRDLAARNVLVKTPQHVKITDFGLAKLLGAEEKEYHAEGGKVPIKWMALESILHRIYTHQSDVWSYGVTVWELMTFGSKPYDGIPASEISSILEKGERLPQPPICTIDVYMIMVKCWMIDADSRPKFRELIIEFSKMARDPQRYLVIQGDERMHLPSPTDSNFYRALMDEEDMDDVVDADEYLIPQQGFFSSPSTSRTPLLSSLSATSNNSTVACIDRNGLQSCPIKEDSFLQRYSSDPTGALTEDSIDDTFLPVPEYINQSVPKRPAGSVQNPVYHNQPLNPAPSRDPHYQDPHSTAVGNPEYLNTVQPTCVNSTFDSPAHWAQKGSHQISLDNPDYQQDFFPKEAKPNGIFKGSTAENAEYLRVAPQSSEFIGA

Row | Structure (SMILES) | IC50 [nM]
1 | OCCN(CCO)CCNc1cc2ncnc(Nc3cccc(Br)c3)c2cn1 | 9
2 | CN(C)c1cc2ncnc(Nc3cccc(Br)c3)c2cn1 | 0.089
3 | COc1cc2c(Nc3cccc(C)c3F)ncnc2cc1OCC1CCNCC1 | 500
4 | O=C(O)c1ccc(-c2cc3c(Nc4cccc(Cl)c4)ncnc3[nH]2)cc1 | 1
5 | CN(CCO)c1cc2ncnc(Nc3cccc(Br)c3)c2cn1 | 2
6 | CN(CC(=O)O)c1cc2ncnc(Nc3cccc(Br)c3)c2cn1 | 15
7 | c1ccc(Nc2ncnc3[nH]c4ccccc4c23)cc1 | 6920
8 | Brc1cccc(Nc2ncnc3cc(NCCN4CCOCC4)ncc23)c1 | 3
9 | COc1cc2c(Nc3cccc(Br)c3F)ncnc2cc1OCCCN1CCN(C)CC1 | 100
10 | OCCNc1cc2ncnc(Nc3cccc(Br)c3)c2cn1 | 0.2
11 | CNc1ncc2ncnc(Nc3cccc(Br)c3)c2n1 | 0.75
12 | CNc1cc2ncnc(Nc3cccc(C)c3)c2cn1 | 1
13 | Cc1cccc(Nc2ncnc3cc(NCCCn4ccnc4)ncc23)c1 | 3.4
14 | OCC(O)C(O)C(O)C(O)CNc1cc2ncnc(Nc3cccc(Br)c3)c2cn1 (stereo unspecified) | 4
15 | COc1cc2c(Nc3cccc(Br)c3F)ncnc2cc1OC[C@@H]1CCCN(C)C1 | 200
16 | COc1cc2c(Nc3cc(F)cc(Cl)c3F)ncnc2cc1OCC1CCNCC1 | 500
17 | CNc1cc2ncnc(Nc3cccc(Br)c3)c2cn1 | 0.1
18 | COc1cc2c(Nc3cccc(C)c3F)ncnc2cc1OCC1CCN(C)CC1 | 1000
19 | COc1cc2c(Nc3ccc(O)c(Cl)c3F)ncnc2cc1OCC1CCN(C)CC1 | 100

Row | Structure (SMILES) | IC50 [nM]
20 | CN(CC(O)CO)c1cc2ncnc(Nc3cccc(Br)c3)c2cn1 (stereo unspecified) | 3
21 | COc1cc2c(Nc3cccc(Cl)c3F)ncnc2cc1OCCN1CCN(C)CC1 | 200
22 | COc1cc2c(Nc3cccc(Cl)c3F)ncnc2cc1OC[C@@H]1CCCN(C)C1 | 100
23 | Nc1cccc(-c2cc3c(Nc4cccc(Cl)c4)ncnc3[nH]2)c1 | 3.9
24 | COc1cc2c(Nc3cc(F)cc(Br)c3F)ncnc2cc1OCC1CCN(C)CC1 | 300
25 | COc1cc2c(Nc3cccc(Cl)c3F)ncnc2cc1OCCN(C)c1ccncc1 | 300
26 | NNc1cc2ncnc(Nc3cccc(Br)c3)c2cn1 | 7
27 | COc1ccc(-c2cc3c(Nc4cccc(Cl)c4)ncnc3[nH]2)cc1 | 15.1
28 | COc1cc2c(Nc3cccc(Cl)c3F)ncnc2cc1OCCCN1CCCC1 | 100
29 | [O-][N+]1(CCCNc2cc3ncnc(Nc4cccc(Br)c4)c3cn2)CCOCC1 | 0.7
30 | COc1cc2c(Nc3cccc(Br)c3F)ncnc2cc1OCCC1CCN(C)CC1 | 200
31 | COc1cc2c(Nc3cccc(Br)c3F)ncnc2cc1OC[C@H]1CCCN(C)C1 | 100
32 | COc1cc2c(Nc3cccc(C#N)c3F)ncnc2cc1OC/C=C/CN1CCCC1 | 794
33 | O=C(O)CCCNc1cc2ncnc(Nc3cccc(Br)c3)c2cn1 | 0.2
34 | COc1cc2c(Nc3cccc(Cl)c3F)ncnc2cc1OCCC1CCN(C)CC1 | 300
35 | CN(CC(O)C(O)C(O)C(O)CO)c1cc2ncnc(Nc3cccc(Br)c3)c2cn1 (stereo unspecified) | 3
36 | CNC(=O)c1cc2c(Nc3cccc(Cl)c3)ncnc2[nH]1 | 3
37 | COc1cc2c(Nc3cccc(Cl)c3F)ncnc2cc1OCC1CCNCC1 | 300
38 | Cc1[nH]c2ncnc(NCc3cccc(Cl)c3)c2c1C | 1070

Row | Structure (SMILES) | IC50 [nM]
39 | CN(C)CCCNc1cc2ncnc(Nc3cccc(Br)c3)c2cn1 | 8
40 | COc1cc2c(Nc3cccc(Br)c3F)ncnc2cc1OC/C=C/CN1CCCC1 | 100
41 | COc1cc2c(Nc3cc(F)cc(Cl)c3F)ncnc2cc1OCC1CCN(C)CC1 | 450
42 | Oc1ccc(-c2cc3c(Nc4cccc(Cl)c4)ncnc3[nH]2)cc1 | 3
43 | COc1cc2c(Nc3cccc(Cl)c3F)ncnc2cc1OC/C=C/CN1CCCC1 | 89
44 | Clc1ncc2ncnc(Nc3cccc(Br)c3)c2n1 | 81
45 | Clc1cccc(Nc2ncnc3[nH]c(-c4ccccn4)cc23)c1 | 7
46 | COc1cc2c(Nc3cccc(Br)c3F)ncnc2cc1OCCC1CCNCC1 | 200
47 | COc1cc2c(Nc3cccc(Cl)c3F)ncnc2cc1OCCCN1CCOCC1 | 100
48 | COc1cc2c(Nc3cccc(Cl)c3F)ncnc2cc1OCCN1CCOCC1 | 398
49 | Nc1ccc(-c2cc3c(Nc4cccc(Cl)c4)ncnc3[nH]2)cc1 | 3
50 | COc1cc2c(Nc3ccc(O)c(C)c3F)ncnc2cc1OCC1CCN(C)CC1 | 300
51 | O=S(=O)(O)CCNc1cc2ncnc(Nc3cccc(Br)c3)c2cn1 | 1
52 | CN(C)CCCCCNc1cc2ncnc(Nc3cccc(Br)c3)c2cn1 | 8.3
53 | COc1cc2c(Nc3cccc(Cl)c3F)ncnc2cc1OCCCN1CCN(C)CC1 | 76
54 | COCCOc1cc2ncnc(Nc3cccc(Cl)c3F)c2cc1OC | 100
55 | COc1cc2c(Nc3cccc(Br)c3F)ncnc2cc1OCC1CCNCC1 | 200
56 | COc1cc2c(Nc3cc(F)cc(Br)c3F)ncnc2cc1OCC1CCNCC1 | 450
